Ten compounds from ChEMBL document CHEMBL1201862, “PubChem BioAssay data set” (2004) can be followed below.

Calls of active or inactive are those of the source.

The target in assay [1] is Adenosylmethionine-8-amino-7-oxononanoate aminotransferase (Mycobacterium tuberculosis, UniProt P9WQ81). The assay is described as follows: Mycobacterium tuberculosis BioA enzyme inhibitor Measured in Biochemical System Using Plate Reader - 2163-02_Inhibitor_Dose_CherryPick_Activity. Format: functional, Mycobacterium tuberculosis UT205.
Assay [2] can be described thus: blockers of CRF-binding protein–CRF-R2 complex – cell-based, uHTS hits, 384-well, dose response (AID 651639). To be noted: read-out: IC50_Mean. In kind it is functional, Homo sapiens.
The target in assay [3] is T1, Corticotropin-releasing factor receptor 2/Corticotropin-releasing factor-binding protein (Homo sapiens, UniProt P24387+Q13324).
T1 sequence (Q13324 whole entry): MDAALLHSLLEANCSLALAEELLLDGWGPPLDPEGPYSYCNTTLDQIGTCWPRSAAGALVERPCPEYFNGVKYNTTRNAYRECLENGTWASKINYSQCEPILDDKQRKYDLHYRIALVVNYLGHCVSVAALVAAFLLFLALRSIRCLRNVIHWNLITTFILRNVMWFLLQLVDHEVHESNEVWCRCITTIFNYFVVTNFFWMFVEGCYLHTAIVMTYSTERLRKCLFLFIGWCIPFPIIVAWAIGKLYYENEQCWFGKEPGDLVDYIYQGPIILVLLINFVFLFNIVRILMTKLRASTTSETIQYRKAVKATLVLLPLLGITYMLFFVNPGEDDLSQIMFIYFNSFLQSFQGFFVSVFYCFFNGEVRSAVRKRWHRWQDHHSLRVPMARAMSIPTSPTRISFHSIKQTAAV
T1 sequence (P24387 whole entry): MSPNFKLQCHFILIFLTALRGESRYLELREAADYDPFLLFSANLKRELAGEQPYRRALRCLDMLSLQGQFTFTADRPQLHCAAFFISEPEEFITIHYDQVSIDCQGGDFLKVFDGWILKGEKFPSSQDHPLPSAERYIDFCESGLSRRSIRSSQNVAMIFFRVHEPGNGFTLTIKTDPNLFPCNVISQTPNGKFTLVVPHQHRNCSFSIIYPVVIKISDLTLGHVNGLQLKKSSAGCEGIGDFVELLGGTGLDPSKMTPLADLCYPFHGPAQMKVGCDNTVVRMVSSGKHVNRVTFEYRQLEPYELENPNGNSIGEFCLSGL
The assay is described as follows: activators of CRF receptor 2 with binding protein – uHTS hits, confirmation (AID 602473). To be noted: read-out: EC50_Mean. Format: functional.

Assay [4] has as its target T1, Corticotropin-releasing factor receptor 2/Corticotropin-releasing factor-binding protein. Briefly: Dose Response confirmation of uHTS hits for small molecule antagonists of the CRF-binding protein and CRF-R2 receptor complex. In kind it is functional. To be noted: read-out: IC50_Mean.
A short description of assay [5]: anti-trypanosomal activity in BESM host cells – imaging, CA-I/72 strain, bovine embryo skeletal muscle, dry powder, dose response (AID 651885). In kind it is functional, cell-based.
Assay [6] is described as follows: A2780 cell killing – plate reader, dry powder samples, cytotoxicity control, dose response (AID 743046). Format: functional, cell-based.
Assay [7] can be described thus: OVCAR-3 cell viability loss – plate reader, dry powder samples, PAX8 inhibitor project, dose response (AID 743044). Format: functional, cell-based.
A short description of assay [8]: blockers of HIV-1 ZM109 envelope-driven cell-cell fusion – HeLa effector, CEM target cells, luciferase, cherry-pick, dose response (AID 652058).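 Further: luciferase signal from HIV-1 Env mediated cell-cell fusion of effector and target cells.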 In kind it is functional, cell-based.
The nature of assay [9]: blockers of HIV-1 envelope-mediated cell-cell fusion – cherry-pick, dose response (AID 652057). In kind it is functional, cell-based.
Assay [10] can be described thus: HIV-1 AD8 envelope cell-cell fusion blockers – cherry-pick, dose response (AID 652062).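 Further: luciferase signal from cell-cell fusion driven by HIV-1 clade B AD8 Env; potency is for inhibitors of fusion seen as a drop in luminescence.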 In kind it is functional, cell-based.
The nature of assay [11]: IGROV1 cell killing – plate reader, dry powder samples, PAX8 inhibitor project, dose response (AID 743043). In kind it is functional, cell-based. To be noted: IGROV-1.
A short description of assay [12]: OVCAR8 cell viability loss – plate reader, dry powder samples, PAX8 project, dose response (AID 743197). To be noted: OVCAR-8. Format: functional, cell-based.
Assay [13] can be described thus: mouse fibroblast viability loss – cell-based, cherry-pick samples, set 2, cytotoxicity control for T. cruzi growth inhibitor project, dose response (AID 651817). To be noted: NIH3T3. In kind it is functional.
In assay [14] the target is Paired box protein Pax-8 (Homo sapiens, UniProt Q06710). Briefly: PAX8 transcriptional activity inhibition in RMG-I – RMG-I cells, luciferase, cherry-pick, dose response (AID 687027).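 Further: luciferase reporter driven by Pax8 target thyroperoxidase promoter measured by SteadyGlo luminescence.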 Format: functional, cell-based.
Assay [15] in a line: T. cruzi growth inhibition in host cells, dose response, cell-based, plate reader, dry powder, set 2 (AID 652275). Format: functional.
Assay [16] deals with T2, Replicative DNA helicase DnaB (Mycobacterium tuberculosis, UniProt P9WMR3).
T2 sequence (P9WMR3 whole entry): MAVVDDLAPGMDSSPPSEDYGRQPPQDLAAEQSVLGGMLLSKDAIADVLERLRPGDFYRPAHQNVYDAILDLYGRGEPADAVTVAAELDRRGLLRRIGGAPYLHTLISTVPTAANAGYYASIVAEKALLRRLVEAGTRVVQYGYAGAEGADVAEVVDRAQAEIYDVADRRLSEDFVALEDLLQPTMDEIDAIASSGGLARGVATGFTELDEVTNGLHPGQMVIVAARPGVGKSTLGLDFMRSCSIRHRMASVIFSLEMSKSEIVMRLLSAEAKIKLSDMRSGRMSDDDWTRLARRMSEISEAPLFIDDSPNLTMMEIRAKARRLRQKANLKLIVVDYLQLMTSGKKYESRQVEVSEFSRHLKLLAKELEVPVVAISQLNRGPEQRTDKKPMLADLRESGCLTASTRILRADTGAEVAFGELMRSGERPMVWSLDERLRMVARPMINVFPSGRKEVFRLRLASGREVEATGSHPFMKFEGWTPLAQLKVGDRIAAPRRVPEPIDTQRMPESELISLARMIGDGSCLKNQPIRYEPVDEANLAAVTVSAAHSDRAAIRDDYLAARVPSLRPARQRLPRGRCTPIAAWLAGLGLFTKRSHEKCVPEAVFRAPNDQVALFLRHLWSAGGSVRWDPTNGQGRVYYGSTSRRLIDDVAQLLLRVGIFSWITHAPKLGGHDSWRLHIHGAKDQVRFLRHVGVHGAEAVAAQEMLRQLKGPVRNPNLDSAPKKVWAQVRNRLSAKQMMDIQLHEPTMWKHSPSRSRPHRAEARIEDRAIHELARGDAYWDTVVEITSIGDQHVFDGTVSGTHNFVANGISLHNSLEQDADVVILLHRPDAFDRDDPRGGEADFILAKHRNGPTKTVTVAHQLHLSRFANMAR
Briefly: DnaB intein splicing inhibitors, dose response, biochemical, cell-free fluorescence (AID 449749). In kind it is functional.

Assay [17] can be described thus: off-target signal loss in HeLa-CEM21 co-culture – HeLa F-luc CTL cells, cherry-picked, counter-screen for HIV-1 Env fusion inhibitor project, dose response (AID 652040).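 Further: potency for signal decrease marking cytotoxic or nonspecific inhibition.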 In kind it is functional, cell-based. (The purpose of a counterscreen is to sort out artefacts and off-target activity.)
The target of assay [18] is T3, Protein RecA (Mycobacterium tuberculosis, UniProt P9WHJ3).
T3 sequence (P9WHJ3 whole entry): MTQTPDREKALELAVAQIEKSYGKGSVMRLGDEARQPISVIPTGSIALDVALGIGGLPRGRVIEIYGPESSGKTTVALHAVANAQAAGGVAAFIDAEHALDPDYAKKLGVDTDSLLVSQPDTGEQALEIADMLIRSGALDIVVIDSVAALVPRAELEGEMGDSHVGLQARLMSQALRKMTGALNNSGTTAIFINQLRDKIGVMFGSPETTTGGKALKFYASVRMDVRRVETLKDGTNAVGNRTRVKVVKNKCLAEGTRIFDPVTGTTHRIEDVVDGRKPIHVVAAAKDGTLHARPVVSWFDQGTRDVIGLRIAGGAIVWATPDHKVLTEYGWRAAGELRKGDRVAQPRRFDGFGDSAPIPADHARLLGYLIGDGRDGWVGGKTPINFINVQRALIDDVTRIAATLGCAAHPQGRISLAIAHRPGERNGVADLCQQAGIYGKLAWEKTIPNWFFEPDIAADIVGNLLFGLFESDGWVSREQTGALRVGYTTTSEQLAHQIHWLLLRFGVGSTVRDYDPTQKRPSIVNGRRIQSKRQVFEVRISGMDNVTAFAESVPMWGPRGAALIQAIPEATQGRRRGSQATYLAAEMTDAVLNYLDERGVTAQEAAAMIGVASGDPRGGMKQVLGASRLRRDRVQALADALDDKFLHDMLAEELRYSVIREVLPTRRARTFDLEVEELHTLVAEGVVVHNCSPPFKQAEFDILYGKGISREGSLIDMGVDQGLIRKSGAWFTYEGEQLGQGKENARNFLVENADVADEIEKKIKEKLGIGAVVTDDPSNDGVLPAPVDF
The assay is described as follows: Fluorescence Cell-Free Homogeneous Dose Retest to Identify Inhibitors of RecA-Intein Splicing Activity. [Related pubchem assays (depositor defined):AID2097, AID2223, AID489010, AID492950]. Format: functional.

Assay [19] is described as follows: Luminescence Cell-Based Dose Retest to Confirm Inhibitors of Cancer Stem Cells. [Related pubchem assays (depositor defined):AID2717, AID2721]. Format: functional. To be noted: Homo sapiens.
Assay [20] is described as follows: viability loss in CEM21 cells – cell-based, CellTiter-Glo luminescence, cherry-picked, cytotoxicity control for viral fusion inhibitor project, dose response (AID 652042).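 Further: potency for signal decrease meaning cytotoxicity.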 Format: functional.
Assay [21] in a line: HGIII-sPLA2 enzyme inhibition potency – biochemical, QFRET, IC50, dose response (AID 743457).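 Further: green fluorescence rise as the enzyme cleaves BODIPY PC-A2 in liposomes.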
Assay [22] addresses T4, Nuclear receptor subfamily 0 group B member 1 (Homo sapiens, UniProt P51843).
T4 sequence (P51843 whole entry): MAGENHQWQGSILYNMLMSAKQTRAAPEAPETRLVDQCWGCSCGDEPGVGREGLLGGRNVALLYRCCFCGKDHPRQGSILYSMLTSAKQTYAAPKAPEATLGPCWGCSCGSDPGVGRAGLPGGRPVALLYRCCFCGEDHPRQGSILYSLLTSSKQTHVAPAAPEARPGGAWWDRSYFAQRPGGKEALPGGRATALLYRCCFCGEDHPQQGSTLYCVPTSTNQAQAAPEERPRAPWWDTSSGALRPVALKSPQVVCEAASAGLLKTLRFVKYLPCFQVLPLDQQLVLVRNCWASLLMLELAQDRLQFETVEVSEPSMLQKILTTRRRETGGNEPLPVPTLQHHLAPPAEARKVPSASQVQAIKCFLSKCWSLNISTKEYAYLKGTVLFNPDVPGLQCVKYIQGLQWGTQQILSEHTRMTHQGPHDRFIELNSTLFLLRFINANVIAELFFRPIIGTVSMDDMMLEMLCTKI
In kind it is functional, cell-based.

The nature of assay [23]: cells. In kind it is functional, cell-based.

Adenosylmethionine-8-amino-7-oxononanoate aminotransferase, sequence (P9WQ81 whole entry): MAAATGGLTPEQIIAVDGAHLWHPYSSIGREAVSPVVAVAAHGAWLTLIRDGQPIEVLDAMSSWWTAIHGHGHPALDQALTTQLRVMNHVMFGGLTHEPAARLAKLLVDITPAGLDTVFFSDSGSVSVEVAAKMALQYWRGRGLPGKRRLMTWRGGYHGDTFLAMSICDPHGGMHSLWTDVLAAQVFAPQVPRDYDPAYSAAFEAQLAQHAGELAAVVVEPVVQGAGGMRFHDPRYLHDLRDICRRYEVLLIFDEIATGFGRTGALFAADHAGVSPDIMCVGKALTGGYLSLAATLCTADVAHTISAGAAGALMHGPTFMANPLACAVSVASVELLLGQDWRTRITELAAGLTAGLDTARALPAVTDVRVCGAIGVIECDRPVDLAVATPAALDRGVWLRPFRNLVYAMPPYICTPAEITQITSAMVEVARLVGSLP
Paired box protein Pax-8, sequence (Q06710 whole entry): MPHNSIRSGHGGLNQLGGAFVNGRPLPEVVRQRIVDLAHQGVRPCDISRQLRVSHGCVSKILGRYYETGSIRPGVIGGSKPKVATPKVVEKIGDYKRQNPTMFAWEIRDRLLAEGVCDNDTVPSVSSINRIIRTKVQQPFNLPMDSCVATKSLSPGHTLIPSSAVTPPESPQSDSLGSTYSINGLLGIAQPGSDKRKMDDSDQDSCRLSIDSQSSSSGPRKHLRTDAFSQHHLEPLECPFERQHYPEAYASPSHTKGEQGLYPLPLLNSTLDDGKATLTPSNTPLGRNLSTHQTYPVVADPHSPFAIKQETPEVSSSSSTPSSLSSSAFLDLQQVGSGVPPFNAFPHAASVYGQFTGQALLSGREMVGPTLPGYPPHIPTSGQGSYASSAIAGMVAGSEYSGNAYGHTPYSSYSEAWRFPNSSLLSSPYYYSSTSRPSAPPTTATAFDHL

One may read the AC50 as the concentration at which the activity in the assay is half-maximal. For `COc1ccc(C(=O)C2CCCN(C(=O)c3ccc(C(C)=O)s3)C2)c(C)c1` (centres undefined), in [1], the AC50 is 1.7 µM (active).
With `CC1(C)CC(=O)C(C2C3=C(CC(C)(C)CC3=O)Oc3ccc4ccccc4c32)C(=O)C1` (centres undefined), the results for the IC50 in assay [2] and in assay [4] were > 20 µM (inactive) and 14.8 µM (active), respectively. The EC50 in [3] was 31.8 µM (active).
As to `CC(C)N1C[C@H](C)[C@@H](CN(C)CC2CCOCC2)Oc2c(NC(=O)c3ccncc3)cccc2C1=O`, the IC50 in assay [5] is 5.83 µM (inconclusive).
On to `C[C@@H]1CN([C@@H](C)CO)C(=O)Cc2cc(NS(=O)(=O)c3ccc(F)cc3)ccc2O[C@H]1CN(C)Cc1ccc(Cl)c(Cl)c1`, for which the AC50 was 45.6 µM (active) in assay [6]; 27.8 µM (active) in [7]; 1.33 µM (active) in assay [8]; 15.4 µM (active) in [9]; 1.52 µM (active) in assay [10]; 12.6 µM (active) in assay [11]. Further, the half-maximal activity concentration (AC50) in [12] is 49.4 µM (active); in assay [13], 7.33 µM (active); in assay [14], 3.12 µM (active).
For the compound `CC(C)N1C[C@@H](CN(C)Cc2ccc(Cl)cc2)Oc2c(NC(=O)c3ncn[nH]3)cccc2C1=O`, in assay [15], the half-maximal activity concentration (AC50) was 5.99 µM (active).
For `COc1ccccc1/C=C/C1(C(=O)NC2CCCC2)CC(=O)N1c1ccc(F)cc1` (centres undefined), the concentration at half-maximal activity (AC50) in assay [16] was 3.57 µM (active); in assay [9] it was 3.35 µM (active); in assay [10], 25.2 µM (active); in [17] it was 5.48 µM (active); in [19], 6.36 µM (active); in assay [20] it was 12.7 µM (active). The EC50 in assay [18] is 2.82 µM (active).
As to `Cc1ccc(C)c(NC(S)=NNC(=O)c2csc(C)c2C)c1`, the IC50 in assay [21] was > 122 µM (inactive).
With `Cc1cccc(NC(=O)c2cccc([N+](=O)[O-])c2O)c1C`, the IC50 in assay [2] is > 20 µM (inactive); in assay [4] it was 5.93 µM (active). Also, the EC50 in assay [3] is > 53 µM (inactive).
Regarding `CCCOC(=O)c1cccc(NC(=O)c2cccnc2)c1`, in [1], the AC50 was 6.09 µM (active).
For `COc1ccc(C(=O)Nc2nnc(SCC(=O)NC3CCCC3)s2)c(OC)c1`, the values for the IC50 in assay [22] and in assay [23] were > 0.0926 µM (active) and > 67.5 µM (inactive), respectively.
